Assays:
OsdR (SCO0204) = target: T1, OsdR (SCO0204) (Streptomyces coelicolor, UniProt Q9RI42); test: in vitro phosphorylation by AcP, read out by EMSA (DNA binding versus nonphosphorylated OsdR); format: biochemical; settings: phosphor donor; covalent phosphorylation; indirect read-out
T1 construct: His6-tagged, from plasmid pET0204 in E. coli BL21(DE3), Ni-NTA purified
T1 sequence (Q9RI42 1-233): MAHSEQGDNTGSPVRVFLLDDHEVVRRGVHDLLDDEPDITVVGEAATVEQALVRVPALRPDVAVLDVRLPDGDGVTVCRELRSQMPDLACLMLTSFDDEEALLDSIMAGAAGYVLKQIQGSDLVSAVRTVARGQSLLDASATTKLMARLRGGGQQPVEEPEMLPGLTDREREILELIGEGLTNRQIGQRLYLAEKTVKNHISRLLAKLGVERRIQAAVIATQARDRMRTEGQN

[1] = target: T2, OsdR~P (phosphorylated with acetyl phosphate) (Streptomyces coelicolor) (UniProt Q9RI42); test: EMSA; settings: AcP-phosphorylated; EMSA with 32P-labeled probes, 20 fmol DNA (50-mers), uM OsdR; AcP phosphorylation; buffer, pH, temperature not given (cited method)
T2 sequence: T1 sequence (Q9RI42 1-233)

Compound | in vitro phosphorylation by AcP, read out by EMSA (DNA binding versus nonphospho) (OsdR (SCO0204)) | binding signal (fold lower affinity than other targets) [1]
CC(=O)OP(=O)(O)O [acetyl phosphate] | OsdR~P was obtained after AcP phosphorylation in vitro | –
SCO2637 promoter | – | 2

Reference: publication PMC5069765, “OsdR of Streptomyces coelicolor and the Dormancy Regulator DevR of Mycobacterium tuberculosis Control Overlapping Regulons” (mSystems, 2016)
